According to patent US9249148B2, “Tris(hetero)arylpyrazoles and use thereof” (AICURIS GMBH & CO. KG, priority 2012, dated 2016):

Experiments:
Format in all cases: cell-based
HIV-1LAI wildtype = experiment: alamarBlue Viability Assay with HIV-1LAI-infected MT4 cells; settings: Human immunodeficiency virus 1, 10% FBS
Experimental: For starting a 96-well MTP, 3 million PBLs are pelleted, suspended in 1 ml RPMI 1640 medium/10% FBS/2 mM L-glutamine/1% Pen/Strep and incubated for 2 hours at 37° C. with a suitable quantity of the relevant HIV-1LAI (NIH AIDS Research & Reference Reagent Program, Germantown, USA) (pellet infection). Non-adsorbed viruses are then washed out, and the infected cells pelleted again and suspended in 18 ml RPMI 1640 medium/10% FBS/2 mM L-glutamine/1% Pen/Strep/Interleukin-2 (40 U/ml). From this, 180 μl per well is pipetted into a 96-well MTP to 20 μl of test substance at a suitable level of dilution. Alternatively, the HIV is added after preparation of the substance dilutes in the MTP together with the cells, and is not washed out (supernatant infection). In order to avoid edge effects, the edge wells of the MTP are not used for substance dilutions. The second vertical row of the MTP contains only infected cells (virus control) and the eleventh vertical row only non-infected cells (cell control), each in RPMI 1640 medium/10% FBS/2 mM L-glutamine/1% Pen/Strep/Interleukin-2 (40 U/ml). The remaining wells of the MTP contain the compounds in accordance with the invention in various concentrations, starting from the third vertical row, from which the test substances are diluted in 3-step sequences up to the tenth vertical row by a factor of 3^7. The test substances are dissolved in DMSO; the final DMSO concentration in the test preparation is 1%. The test samples are incubated for 5 days at 37° C./5% CO2. After 5 to 7 days, 50 μl of cell-free supernatant is removed from each well to determine its p24 content using p24 ELISA (HIV-1 p24CA Antigen Capture Assay Kit, NCI-Frederick Cancer Research and Development Center, Frederick, USA). From the resulting values of the photometric analysis (450/620 nm), the EC50 values of the test substances are determined from the resulting dose-response curves using the Prism4 software (GraphPad, San Diego, Calif.) as the concentration of treated infected cells, where the p24 quantity is 50% of the untreated infected cells.
Alternatively, MT4 cells are used in place of PBLs for testing the test substances. HIV-1LAI-infected MT4 cells (MOI 0.01, supernatant infection) are incubated in accordance with the procedure described above in RPMI 1640 medium using 2% or 10% FKS/2 mM L-glutamine/1% Pen/Strep in the presence of the test substances for 5 days at 37° C./5% CO2 (10 μl diluted substance and 90 μl cells/virus per well). 10 μl alamarBlue (Invitrogen, Karlsruhe, Germany) is then added per well and the MTPs are incubated for 3 hours at 37° C. before fluorimetric evaluation is performed (544/590 nm). Using quattroWorkflow software (Quattroresearch, Martinsried, Germany), the EC50 values of the test substances are determined from the resulting dose-response curves as the concentration of treated infected cells in which the fluorescence is 50% of that of the untreated, non-infected cells.

HIV-1NL4-3 wildtype = experiment: Luminescence Reduction Assay, luciferase reporter virus in MT4 cells; settings: Human immunodeficiency virus 1, MT4, read-out: EC50 (μM) MT4 cells HIV-1NL4-3 wildtype 2% FBS
Description: (§1) For this assay, HIV-1NL4-3 reporter viruses are used which carry the luciferase164 gene (lu164) in place of the nef gene. The viruses are generated by transfection of 293T cells with the corresponding proviral pNL4-3 plasmid (Lipofectamine Reagent, Invitrogen, Karlsruhe, Germany). Starting from the proviral plasmid DNA, viruses with defined resistance mutations (single or combined) are produced in the reverse transcriptase gene using the “QuikChange II XL Site-Directed Mutagenesis Kit” (Stratagene, Cedar Creek, Tex., USA). Resistance mutations include, among others: L74V, A98G, A98S, L100I, K101E, K103N, V106A, V106I, V106M, V108I, V108A, E138K, V179I, V179D, V179E, Y181C, Y181I, Y188L, G190A, G1905, H221Y, P225H, F227C, F227L, F227V, M230I, M230L, L234I, P236L, N348I, T369A, T369I, T369V. MT4 cells infected with these reporter viruses (NIH AIDS Research and Reference Reagent Program) secrete luciferase into the medium, which enables the luminometric quantification of the virus replication.
(§2) For starting a 96-well MTP, 3 million MT4 cells are pelleted, suspended in 1 ml RPMI 1640 medium without phenol red (Invitrogen, Karlsruhe, Germany)/10% FBS/2 mM L-glutamine/1% Pen/Strep (Invitrogen, Karlsruhe, Germany), and incubated for 2 hours at 37° C. with a suitable quantity of the relevant HIV-1NL4-3 reporter virus (pellet infection). Non-adsorbed viruses are then washed out, and the infected cells are pelleted again and suspended in 8 ml RPMI 1640 medium without phenol red/2% or 10% FBS/2 mM L-glutamine/1% Pen/Strep. From this, 90 μl per well is pipetted into a white 96-well MTP to 10 μl of test substance at a suitable level of dilution. In order to avoid edge effects, the edge wells of the MTP are not used for substance dilutions. The second vertical row of the MTP contains only infected cells (virus control) and the eleventh vertical row only non-infected cells (cell control), each in RPMI 1640 medium without phenol red/2% or 10% FBS/2 mM L-glutamine/1% Pen/Strep. The remaining wells of the MTP contain the compounds in accordance with the invention in various concentrations, starting from the third vertical row, from which the test substances are diluted in 3-step sequences up to the tenth vertical row by a factor of 3^7. The test substances are dissolved in DMSO; the final DMSO concentration in the test formulation is 1%.

HIV-1NL4-3 K103N-Y181C = experiment: Luminescence Reduction Assay, luciferase reporter virus with resistance mutations in MT4 cells; settings: Human immunodeficiency virus 1, MT4, read-out: EC50 (μM) MT4 cells HIV-1NL4-3 K103N-Y181C 2% FBS
Description: as §1, §2

| Structure (SMILES) | EC50 (HIV-1LAI wildtype) [µM] | EC50 (HIV-1NL4-3 wildtype) [µM] | EC50 (HIV-1NL4-3 K103N-Y181C) [µM] |
| --- | --- | --- | --- |
| O=C1NCc2c1ccnc2-c1cc(-c2cc(F)cc(OC(F)(F)F)c2)n(-c2ccc(F)c(Cl)c2)n1 [Example 5, 4-{1-(3-chloro-4-fluorophenyl)-5-[3-fluoro-5-(trifluoromethoxy)phenyl]-1H-pyrazole-3-yl}-2,3-dihydro-1H-pyrrolo[3,4-c]pyridine-1-one] | 0.15 | 0.011 | 0.0117 |
| COc1cccc(-n2nc(-c3nccc4c3CNC4=O)cc2-c2ccnc(Cl)c2)c1 [Example 39] | 0.0486 | 0.0075 | 0.0692 |
| O=C1NCc2c1cccc2-c1cc(-c2cc(F)cc(Cl)c2)n(-c2cccc(Cl)c2)n1 [Example 41] | 0.0807 | 0.0112 | 0.152 |
| O=C1NCc2c1cccc2-c1cc(-c2cc(Cl)cc(OC(F)F)c2)n(-c2cccnc2)n1 [Example 18, 4-{5-[3-chloro-5-(difluoromethoxy)phenyl]-1-(pyridine-3-yl)-1H-pyrazole-3-yl}-2,3-dihydro-1H-isoindole-1-one] | 0.0177 | 0.0056 | 0.013 |
| O=C1NCc2c1ccnc2-c1cc(-c2cccc(OC(F)F)c2)n(-c2ccc(F)c(Cl)c2)n1 [Example 42] | 0.0717 | 0.0098 | 0.0194 |
| N#Cc1cccc(-c2cc(-c3nccc4c3CNC4=O)nn2-c2ccc(F)cc2)c1 [Example 35] | 0.15 | 0.0593 | 0.0317 |
| O=C1NCc2c1cccc2-c1cc(-c2cc(Br)cc(OC(F)F)c2)n(-c2cccnc2)n1 [Example 21, 4-{5-[3-bromo-5-(difluoromethoxy)phenyl]-1-(pyridine-3-yl)-1H-pyrazole-3-yl}-2,3-dihydro-1H-isoindole-1-one] | 0.0325 | 0.0063 | 0.0283 |
| O=C1NCc2c1ccnc2-c1cc(-c2cccc(F)c2F)n(-c2ccc(F)c(Cl)c2)n1 [Example 33] | 0.0641 | 0.0227 | 0.061 |
| O=C1NCc2c1ccnc2-c1cc(-c2cc(Cl)cc(OC(F)(F)F)c2)n(-c2cccnc2)n1 [Example 10, 4-{5-[3-chloro-5-(trifluoromethoxy)phenyl]-1-(pyridine-3-yl)-1H-pyrazole-3-yl}-2,3-dihydro-1H-pyrrolo[3,4-c]pyridine-1-one] | 0.008 | 0.0012 | 0.0027 |
| O=C1NCc2c1cccc2-c1cc(-c2ccc(F)c(OC(F)(F)F)c2)n(-c2cccc(Cl)c2)n1 [Example 44] | 1.91 | 0.533 | 0.458 |
| O=C1NCc2c1ccnc2-c1cc(-c2cc(Cl)cc(OC(F)F)c2)n(-c2cccnc2)n1 [Example 16, 4-{5-[3-chloro-5-(difluoromethoxy)phenyl]-1-(pyridine-3-yl)-1H-pyrazole-3-yl}-2,3-dihydro-1H-pyrrolo[3,4-c]pyridine-1-one] | 0.0023 | 0.0005 | 0.0026 |
| O=C1NCc2c1cccc2-c1cc(-c2cc(Cl)cc(OC(F)(F)F)c2)n(-c2cccnc2)n1 [Example 11, 4-{5-[3-chloro-5-(trifluoromethoxy)phenyl]-1-(pyridine-3-yl)-1H-pyrazole-3-yl}-2,3-dihydro-1H-isoindole-1-one] | 0.0663 | 0.0091 | 0.024 |
| COc1cccc(-n2nc(-c3cccc4c3CNC4=O)cc2-c2ccnc(Cl)c2)c1 [Example 40] | 0.222 | 0.0517 | 0.499 |
| O=C1NCc2c1ccnc2-c1cc(-c2cc(F)cc(OC(F)F)c2)n(-c2ccc(F)c(Cl)c2)n1 [Example 15, 4-{1-(3-chloro-4-fluorophenyl)-5-[3-(difluoromethoxy)-5-fluorophenyl]-1H-pyrazole-3-yl}-2,3-dihydro-1H-pyrrolo[3,4-c]pyridine-1-one] | 0.0171 | 0.0044 | 0.0085 |
| O=C1NCc2c1cccc2-c1cc(-c2cccc(F)c2F)n(-c2ccc(F)c(Cl)c2)n1 [Example 34] | 0.75 | 0.131 | 0.458 |
| COc1cc(OC(F)(F)F)cc(-c2cc(-c3nccc4c3CNC4=O)nn2-c2ccc(F)c(Cl)c2)c1 [Example 27] | 0.148 | 0.0384 | 0.0219 |
| O=C1NCc2c1ccnc2-c1cc(-c2cc(F)cc(Cl)c2)n(-c2cccc(Cl)c2)n1 [Example 26] | 0.0153 | 0.0017 | 0.0208 |
| O=C1NCc2c1ccnc2-c1cc(-c2cccc(Cl)c2)n(-c2cccc(C(F)(F)F)c2)n1 [Example 37] | 0.0835 | 0.0288 | 0.148 |
| O=C1NCc2c1ccnc2-c1cc(-c2cc(Br)cc(OC(F)(F)F)c2)n(-c2cccnc2)n1 [Example 13, 4-{5-[3-bromo-5-(trifluoromethoxy)phenyl]-1-(pyridine-3-yl)-1H-pyrazole-3-yl}-2,3-dihydro-1H-pyrrolo[3,4-c]pyridine-1-one] | 0.0086 | 0.0011 | 0.0025 |
| O=C1NCc2c1ccnc2-c1cc(-c2cc(Cl)cc(OC(F)F)c2)n(-c2ccnc(Cl)c2)n1 [Example 17, 4-{5-[3-chloro-5-(difluoromethoxy)phenyl]-1-(2-chloropyridine-4-yl)-1H-pyrazole-3-yl}-2,3-dihydro-1H-pyrrolo[3,4-c]pyridine-1-one] | 0.0086 | 0.0011 | 0.0049 |
| O=C1NCc2c1ncnc2-c1cc(-c2cc(Cl)cc(OC(F)(F)F)c2)n(-c2cccnc2)n1 [Example 45] | 0.0045 | 0.0005 | 0.0007 |
| O=C1NCc2c1ccnc2-c1cc(-c2cc(F)cc(Cl)c2)n(-c2ccc(F)c(Cl)c2)n1 [Example 1, 4-[1-(3-chloro-4-fluorophenyl)-5-(3-chloro-5-fluorophenyl)-1H-pyrazole-3-yl]-2,3-dihydro-1H-pyrrolo[3,4-c]pyridine-1-one] | 0.0097 | 0.0015 | 0.004 |
| O=C1NCc2c1ccnc2-c1cc(-c2cc(Cl)cc(OC(F)(F)F)c2)n(-c2ccc(F)c(Cl)c2)n1 [Example 9, 4-{1-(3-chloro-4-fluorophenyl)-5-[3-chloro-5-(trifluoromethoxy)phenyl]-1H-pyrazole-3-yl}-2,3-dihydro-1H-pyrrolo[3,4-c]pyridine-1-one] | 0.0768 | 0.0128 | 0.0176 |
